Assay results from US12644840B2, “Pathogenic susceptibility assessment based on autofluoresence” (Adiuvo D[…] Limited, priority 2021, dated 2026).

How the values were obtained:
Pseudomonas aeruginosa = conditions: concentration added to sensitive and resistant strain wells; imaged at 0th and 4th hour; cited from earlier work
[1] = test system: Mycobacterium tuberculosis; assay: Autofluorescence-based susceptibility testing of positive sputum samples; assay type: cell-based

SMILES	Minimum Inhibitory Concentration (MIC) Value (Pseudomonas aeruginosa) [µg/mL]	MIC [1] [µg/mL]
C[C@@H](O)[C@H]1C(=O)N2C(C(=O)O)=C(S[C@@H]3CN[C@H](C(=O)N(C)C)C3)[C@H](C)[C@H]12 [meropenem]	4	–
NC[C@H]1O[C@H](O[C@H]2[C@H](O)[C@@H](O[C@H]3O[C@H](CO)[C@@H](O)[C@H](N)[C@H]3O)[C@H](N)C[C@@H]2N)[C@H](O)[C@@H](O)[C@@H]1O [kanamycin]	–	> 3
